The values that follow come from patent US10675258B2, “Method of using gamma-hydroxybutyrate compositions for the treatment of disorders” (Jazz Pharmaceuticals Ireland Limited, priority 2012, dated 2020).

Bounds are passed on as bounds.

Data set [1] is described as follows: Chemical stability of GHB as a function of pH (GBL formation). Particulars: aqueous GHB compositions.
The nature of data set [2]: Maximum solubility of GHB as a function of pH of the aqueous medium. Format: physicochemical. As for the experimental part: It will be understood that the maximum solubility of GHB is affected by the pH of the aqueous medium. For example, at about pH 4, the maximum amount of Na•GHB that can be dissolved is about 450 mg/ml.

In the case of `O=C(O)CCCO` [GHB, gamma-hydroxybutyrate], in data set [1], the “pH at which GBL begins to form” value is given as at most 6. Moreover, in data set [2] (750 mg/ml GHB, aqueous medium), the “minimal pH that will dissolve 750 mg/ml GHB” value was about 6.8. Turning to `O=C([O-])CCCO.[Na+]` [Na•GHB, sodium gamma-hydroxybutyrate], the “maximum amount that can be dissolved” value in data set [2] (aqueous medium at about pH 4) is given as “about 450 mg/ml”.
